Source: US20180171411A1, “GFRalpha1 AS A BIOMARKER FOR CISPLATIN-INDUCED CHEMORESISTANCE AND METASTASIS” (THE BOARD OF REGENTS OF THE UNIVERSITY OF TEXAS SYSTEM, priority 2015, published 2018)

Tested on: MG-63 cells
Assay: Transmission electron microscopy of autophagic vacuoles
Assay type: cell-based, human
Details: control MG-63 cells; cisplatin 20 μM, 24 hr
Protocol: FIG. 3. GFRα1-induced autophagy enhances the chemoresistance of osteosarcoma cells induced by cisplatin. (a) Control and GFRα1-deficient MG-63 cells were transiently transfected with a mRFP-GFP tandem fluorescent-tagged LC3 (mRFP-GFP-LC3) vector and then treated with cisplatin (20μM) for 24 hr. Left, representative images of RFP-LC3 and GFP-LC3 puncta. Scale bar, 20 μm. Right, quantitative analysis of the number of yellow puncta and the number of RFP-LC3 puncta in the combined images. The values are represented as a mean±s.d.m. (n=3). ** denotes p<0.05 by t-test. (b) Control and GFRα1-deficient MG-63 cells were treated with cisplatin (20 μM) for 24 hr and then stained with acridine orange. […] Bottom, quantitative analysis of the number of AVOs. […] (c) Control and GFRα1-deficient MG-63 cells were treated with cisplatin (20 μM) for 24 hr and then analyzed by TEM. Top, representative images of autophagic vacuoles (yellow arrows) detected after cisplatin treatment in control MG-63 cells. […] Bottom, quantitative analysis of the number of autophagic vacuoles. […] (e) Quantitative analysis of the number of yellow puncta and the number of RFP-LC3 puncta in control and GFRα1-overexpressing MG-63 cells. […] Bottom, quantitative analysis of the number of AVOs. […] (h) Control and GFRα1-overexpressing MG-63 cells were treated with cisplatin (20 μM) for 24 hr and then analyzed by TEM. […]

N.N.[Cl][Pt][Cl] [cisplatin, Cis-Diamineplatinum(II) dichloride]
number of autophagic vacuoles per cell: markedly increased
